Where only a bound is given, the exact number is not on record here.

The experiment deals with T1, CRF1 receptors (Homo sapiens, UniProt P34998).
T1 construct: endogenous in cells; host or cells: IMR-32 cells, transformed with 2.5 µM 5'-bromo-2'-deoxyuridine for 10 days; membrane preparation
T1 sequence (P34998 24-415): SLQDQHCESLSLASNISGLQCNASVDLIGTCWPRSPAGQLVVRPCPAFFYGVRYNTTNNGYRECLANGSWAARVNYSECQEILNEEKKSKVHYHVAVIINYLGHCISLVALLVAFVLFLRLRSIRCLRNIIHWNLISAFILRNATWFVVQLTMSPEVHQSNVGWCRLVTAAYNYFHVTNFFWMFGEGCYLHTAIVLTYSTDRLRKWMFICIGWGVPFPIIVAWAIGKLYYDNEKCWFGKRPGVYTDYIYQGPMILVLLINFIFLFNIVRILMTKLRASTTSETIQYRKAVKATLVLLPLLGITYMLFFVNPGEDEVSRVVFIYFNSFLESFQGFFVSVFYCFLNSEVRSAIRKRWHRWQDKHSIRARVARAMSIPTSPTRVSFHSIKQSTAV
Description: CRF1 receptor radioligand binding assay ([125I]-oCRF competition, IMR-32 cell membranes). The following applies: IMR-32 cell membranes, [125I]-oCRF 100 pM; read-out: Ki (CRF-1R). As to the method: CRF1 receptor antagonists, by occupying the same receptors, blocks the accessibility of the receptors to CRF, a hypothalamic factor mediating body's responses to physiological and psychological stress. The following radioligand binding assay examines the ability of the antagonists to bind the CRF1 receptors by assessing their ability to compete with binding of CRF to the receptors in cell membrane.
Tissue culture and membrane preparation. IMR-32 cells were grown at 37° C. in 5% CO2 as a monolayer in medium consisting of MEM supplemented with 10% heat-inactivated fetal bovine serum, 0.1 mM nonessential amino acids, 1 mM sodium pyruvate and 2 mM L-glutamine. […] After transformation, cells were rinsed twice with phosphate-buffered saline, and incubated for 10–15 min. at 4° C. in homogenization buffer consisting of 50 mM Tris (pH 7.2), 10 mM MgCl2 and 2 mM EGTA. Cells were transferred from plates to polypropylene tubes (16×100 mm), homogenized and centrifuged at 32,000×g for 15 min. Pellets were resuspended by homogenization in buffer and centrifuged at 32,000×g for 15 min. Pellets were resuspended in homogenization buffer then stored at −80° C. until needed.
Radioligand binding assays. […] The assay buffer consisted of 50 mM Tris (pH 7.2), 10 mM MgCl2, 0.5% BSA, 0.005% Triton X-100, 10 μg/mL aprotinin and 10 μg/mL leupeptin. Assays were stopped by addition of ice-cold wash buffer (50 mM Tris, pH 7.4 and 0.2% BSA). Filtration over glass fiber filters (Whatman GF/B) previously soaked in 50 mM Tris, pH 7.2 and 1% BSA was carried out using a Brandel cell harvester. Filters were washed with 10 mL of ice-cold wash buffer. Non-specific binding was defined with 10 μM oCRF. IC50 values for oCRF and test compounds were calculated by nonlinear regression using a one-site binding curve (GraphPad Prism).
Regarding `CCCN(Cc1ccccc1)C(=O)c1c(CC)nc2n1CCN2c1c(C)cc(C)cc1C` [Example 25, 2-Ethyl-7-(2,4,6-trimethyl-phenyl)-6,7-dihydro-5H-imidazo[1,2-a]imidazole-3-carboxylic acid benzyl-propyl-amide], the inhibition constant (Ki) was less than 10000 nM. As for `CCCN(Cc1cccc(F)c1)C(=O)c1c(CC)nc2n1CCN2c1c(C)cc(C)cc1C` [Example 26, 2-Ethyl-7-(2,4,6-trimethyl-phenyl)-6,7-dihydro-5H-imidazo[1,2-a]imidazole-3-carboxylic acid (3-fluoro-benzyl)-propyl-amide], the Ki was less than 10000 nM. Consider `CCc1nc2n(c1C(=O)N(CC1CC1)CC(F)(F)F)CCN2c1c(C)cc(C)cc1Cl` [Example 27, 7-(2-Chloro-4,6-dimethyl-phenyl)-2-ethyl-6,7-dihydro-5H-imidazo[1,2-a]imidazole-3-carboxylic acid cyclopropylmethyl-(2,2,2-trifluoro-ethyl)-amide], for which the Ki is less than 100 nM. To `CCCN(CC1CC1)C(=O)c1c(CC)nc2n1CCN2c1c(C)cc(C)cc1Cl` [Example 28, 7-(2-Chloro-4,6-dimethyl-phenyl)-2-ethyl-6,7-dihydro-5H-imidazo[1,2-a]imidazole-3-carboxylic acid cyclopropylmethyl-propyl-amide] belongs less than 100 nM. For `CCc1nc2n(c1C(=O)N(CCC(F)(F)F)CC1CC1)CCN2c1c(C)cc(C)cc1Cl` [Example 29, 7-(2-Chloro-4,6-dimethyl-phenyl)-2-ethyl-6,7-dihydro-5H-imidazo[1,2 a]imidazole-3-carboxylic acid cyclopropylmethyl-(3,3,3-trifluoro-propyl)-amide], the Ki is less than 1000 nM. Consider `CCc1nc2n(c1C(=O)N(CC1CC1)CC(F)(F)F)CCN2c1c(C)cc(Cl)cc1Cl` [Example 30, 7-(2,4-Dichloro-6-methyl-phenyl)-2-ethyl-6,7-dihydro-5H-imidazo[1,2-a]imidazole-3-carboxylic acid cyclopropylmethyl-(2,2,2-trifluoro-ethyl)-amide], for which the Ki is less than 100 nM.

On to `CCCN(CC1CC1)C(=O)c1c(CC)nc2n1CCN2c1c(C)cc(Cl)cc1Cl` [Example 31, 7-(2,4-Dichloro-6-methyl-phenyl)-2-ethyl-6,7-dihydro-5H-imidazo[1,2-a]imidazole-3-carboxylic acid cyclopropylmethyl-propyl-amide], for which the Ki was less than 100 nM. As to `CCc1nc2n(c1C(=O)N(CC1CC1)CC(F)(F)C(F)(F)F)CCN2c1c(C)cc(Cl)cc1Cl` [Example 32, 7-(2,4-Dichloro-6-methyl-phenyl)-2-ethyl-6,7-dihydro-5H-imidazo[1,2-a]imidazole-3-carboxylic acid cyclopropylmethyl-(2,2,3,3,3-pentafluoro-propyl)-amide], the Ki is less than 100 nM. `CCCN(CC(F)(F)F)C(=O)c1c(CC)nc2n1CCN2c1c(C)cc(Cl)cc1Cl` [Example 33, 7-(2,4-Dichloro-6-methyl-phenyl)-2-ethyl-6,7-dihydro-5H-imidazo[1,2-a]imidazole-3-carboxylic acid propyl-(2,2,2-trifluoro-ethyl)-amide]: the inhibition constant Ki is less than 100 nM. For `CCc1nc2n(c1C(=O)N(CC1CC1)CC(F)(F)F)CCN2c1ccc(C(C)C)cc1Br` [Example 34, 7-(2-Bromo-4-isopropyl-phenyl)-2-ethyl-6,7-dihydro-5H-imidazo[1,2-a]imidazole-3-carboxylic acid cyclopropylmethyl-(2,2,2-trifluoro-ethyl)-amide], the Ki is less than 1000 nM. As to `CCCN(CC1CC1)C(=O)c1c(CC)nc2n1CCN2c1ccc(C(C)C)cc1Br` [Example 35, 7-(2-Bromo-4-isopropyl-phenyl)-2-ethyl-6,7-dihydro-5H-imidazo[1,2-a]imidazole-3-carboxylic acid cyclopropylmethyl-propyl-amide], the inhibition constant (Ki) is less than 10000 nM. As for `CCCN(CC(F)(F)F)C(=O)c1c(CC)nc2n1CCN2c1ccc(C(C)C)cc1Br` [Example 36, 7-(2-Bromo-4-isopropyl-phenyl)-2-ethyl-6,7-dihydro-5H-imidazo[1,2-a]imidazole-3-carboxylic acid propyl-(2,2,2-trifluoro-ethyl)-amide], the Ki was less than 1000 nM. Consider `CCc1nc2n(c1C(=O)N(CC1CC1)CC(F)(F)C(F)(F)F)CCN2c1ccc(C(C)C)cc1Br` [Example 37, 7-(2-Bromo-4-isopropyl-phenyl)-2-ethyl-6,7-dihydro-5H-imidazo[1,2-a]imidazole-3-carboxylic acid cyclopropylmethyl-(2,2,3,3,3-pentafluoro-propyl)-amide], for which the inhibition constant Ki was less than 1000 nM. In the case of `CCCN(CC1CCC1)C(=O)c1c(CC)nc2n1CCN2c1ccc(C(C)C)cc1Br` [Example 38, 7-(2-Bromo-4-isopropyl-phenyl)-2-ethyl-6,7-dihydro-5H-imidazo[1,2-a]imidazole-3-carboxylic acid cyclobutylmethyl-propyl-amide], the inhibitory constant (Ki) was less than 10000 nM. `CCc1nc2n(c1C(=O)N(CCC(F)(F)F)CC1CC1)CCN2c1ccc(C(C)C)cc1Br` [Example 39, 7-(2-Bromo-4-isopropyl-phenyl)-2-ethyl-6,7-dihydro-5H-imidazo[1,2-a]imidazole-3-carboxylic acid cyclopropylmethyl-(3,3,3-trifluoro-propyl)-amide]: the Ki is less than 10000 nM. On to `CCc1nc2n(c1C(=O)N(CC)CC1CC1)CCN2c1ccc(C(C)C)cc1Br` [Example 40, 7-(2-Bromo-4-isopropyl-phenyl)-2-ethyl-6,7-dihydro-5H-imidazo[1,2-a]imidazole-3-carboxylic acid cyclopropylmethyl-ethyl-amide], for which the Ki was less than 10000 nM. Consider `CCCN(CCc1ccccc1)C(=O)c1c(CC)nc2n1CCN2c1c(C)cc(C)cc1Br` [Example 41, 7-(2-Bromo-4,6-dimethyl-phenyl)-2-ethyl-6,7-dihydro-5H-imidazo[1,2-a]imidazole-3-carboxylic acid phenethyl-propyl-amide], for which the Ki was less than 1000 nM. For the compound `CCCN(CC1CCC1)C(=O)c1c(CC)nc2n1CCN2c1c(C)cc(C)cc1Br` [Example 42, 7-(2-Bromo-4,6-dimethyl-phenyl)-2-ethyl-6,7-dihydro-5H imidazo[1,2-a]imidazole-3-carboxylic acid cyclobutylmethyl-propyl-amide], the inhibition constant Ki is less than 1000 nM. Regarding `CCc1nc2n(c1C(=O)N(CC)CC1CCC1)CCN2c1c(C)cc(C)cc1Br` [Example 43, 7-(2-Bromo-4,6-dimethyl-phenyl)-2-ethyl-6,7-dihydro-5H-imidazo[1,2-a]imidazole-3-carboxylic acid cyclobutylmethyl-ethyl-amide], the inhibition constant (Ki) is less than 1000 nM. Regarding `CCc1nc2n(c1C(=O)N(CC1CC1)CC(F)(F)F)CCN2c1c(C)cc(C)cc1Br` [Example 44, 7-(2-Bromo-4,6-dimethyl-phenyl)-2-ethyl-6,7-dihydro-5H-imidazo[1,2-a]imidazole-3-carboxylic acid cyclopropylmethyl-(2,2,2-trifluoro-ethyl)-amide], the Ki was less than 100 nM. To `CCCN(CCC(F)(F)F)C(=O)c1c(CC)nc2n1CCN2c1c(C)cc(C)cc1Br` [Example 45, 7-(2-Bromo-4,6-dimethyl-phenyl)-2-ethyl-6,7-dihydro-5H-imidazo[1,2-a]imidazole-3-carboxylic acid propyl-(3,3,3-trifluoro-propyl)-amide] belongs less than 1000 nM. As to `CCCN(CC1CC1)C(=O)c1c(CC)nc2n1CCN2c1c(C)cc(C)cc1Br` [Example 46, 7-(2-Bromo-4,6-dimethyl-phenyl)-2-ethyl-6,7-dihydro-5H-imidazo[1,2-a]imidazole-3-carboxylic acid cyclopropylmethyl-propyl-amide], the Ki was less than 10000 nM. The same measure for `CCCC(O)(CCC)c1c(CC)nc2n1CCN2c1c(C)cc(C)cc1C` [Example 47, 4-[2-Ethyl-7-(2,4,6-trimethyl-phenyl)-6,7-dihydro-5H-imidazo[1,2-a]imidazol-3-yl]-heptan-4-ol]: less than 1000 nM; for `CCC=C(CCC)c1c(CC)nc2n1CCN2c1c(C)cc(C)cc1C` [Example 48, 6-Ethyl-5-(1-propyl-but-1-enyl)-1-(2,4,6-trimethyl-phenyl)-2,3-dihydro-1H-imidazo[1,2-a]imidazole]: less than 100 nM; for `CCCC(CCC)c1c(CC)nc2n1CCN2c1c(C)cc(C)cc1C` [Example 49, 6-Ethyl-5-(1-propyl-butyl)-1-(2,4,6-trimethyl-phenyl)-2,3-dihydro-1H-imidazo[1,2-a]imidazole]: less than 1000 nM.

Values taken from patent US7125990B2, “Imidazolyl derivatives as corticotropin releasing factor inhibitors” (Bristol-Myers Squibb COmpany, priority 2001, dated 2006).
